Laboratory results as given in patent US20170105947A1, “Appetite Suppressant Composition” (priority 2015, published 2017).
“Also recorded” adds a separate entry of the source.

Experiments:
rat intestinal cells = conditions: added to rat intestinal cells / lumen of the intestine; cited from earlier work
gastric emptying = conditions: oral administration of 50-100 mg/kg, rats; cited from earlier work
food preference of dogs = assay type: in vivo; conditions: food containing 2,500 ppm vs untreated control
Excerpt: During this experience non-encapsulated trans-2-hexenal in combination with other chemicals were applied to feed.

[1] = rats vs human intake of about 350 ug/kg/day; cited from earlier work
[2] = 13 wk, rat, cited from earlier work
[3] = in vivo; cited from earlier work

CCCCC/C=C/C=C/C=O [trans, trans-2,4-decadienal]
level of CCK in vitro (rat intestinal cells): increased the level of CCK | gastric emptying (gastric emptying): reduced gastric emptying

CCC/C=C/C=O [trans-2-hexenal]
food preference (food preference of dogs): dogs preferred the untreated control | toxic levels in rats relative to normal intake by humans [1]: 30 times | body weight and intake ([2]; 4000 ppm in diet): no significant reduction; also recorded: did not significantly affect feed intake or body weight | changes in hematological parameters or organ weights ([2]; dietary levels 0, 260, 640, 1600 or 4000 ppm): did not induce any changes

CCCCCCCCCCC[C@@H](C[C@@H]1OC(=O)[C@H]1CCCCCC)OC(=O)[C@H](CC(C)C)NC=O [Orlistat, tetrahydrolipstatin]
known side effects [3]: steatorrhea, fecal incontinence, frequent bowel movements and urgency, compromised absorption of fat-soluble vitamins and nutrients, increased appetite and diminished effectiveness over time
